Experimental findings from ChEMBL document CHEMBL6134841, “3,5-Dihydroxybenzoic Acid as a Potent Inhibitor of Tyrosine Phenol-Lyase Decreases Fecal Phenol Levels in Mice” (J Med Chem, 2025) are described below.

Usually Ki stands for the dissociation constant of the complex between target and ligand, obtained from inhibition or displacement.

Calls of active or inactive are those of the source. The rule behind the calls is not given here.

Assay [1] in a line: Competitive inhibition of bacterial TPL assessed as decrease in phenol production incubated for 3 mins in presence of PLP/L-Tyr by LC-MS analysis. Details: species or system Bacteria.
Assay [2] deals with Morganella morganii. Kind of assay: Inhibition of recombinant Morganella morganii JCM1672 TPL extracted from Escherichia coli BL21(DE3) assessed as decrease in phenol production incubated for 3 mins in presence of PLP/L-Tyr by LC-MS analysis.
Assay [3] relates to Citrobacter koseri. Kind of assay: Inhibition of recombinant Citrobacter koseri JCM1658 TPL extracted from Escherichia coli BL21(DE3) assessed as decrease in phenol production incubated for 3 mins in presence of PLP/L-Tyr by LC-MS analysis.
The test system of assay [4] is Morganella morganii. Kind of assay: Inhibition of TPL in Morganella morganii JCM1672 assessed as decrease in phenol production at 500 uM incubated for 0.5 to 3 hrs by absorbance based analysis. To be noted: time 0.5-3 hrs.
Assay [5] has as its system Citrobacter koseri. Kind of assay: Effect on TPL expression in Citrobacter koseri JCM1658 up to 500 uM by immunoblot analysis. In kind it is functional. For orientation: In western blotting, separated proteins are transferred to a membrane and probed.
Assay [6] concerns Mus musculus. Kind of assay: In vivo inhibition of TPL in feces of C57BL/6J mouse administered orally measured after 14 days by immunoassay. It counts as functional, organism-based. Conditions: route po, time 14.0 day.
Assay [7] has as its system Citrobacter koseri. Kind of assay: Inhibition of cell growth in Citrobacter koseri JCM1658 up to 500 uM incubated up to 24 hrs. In kind it is functional, organism-based.
For assay [8], the system named is Morganella morganii. Kind of assay: Inhibition of TPL in Morganella morganii JCM1672 assessed as decrease in phenol production at 100 to 500 uM incubated for 3 hrs by absorbance based analysis relative to control. To be noted: dose 100-500 µM.
The test system of assay [9] is Morganella morganii. Kind of assay: Inhibition of TPL in Morganella morganii JCM1672 assessed as decrease in phenol production at 100 uM incubated for 1 hr by absorbance based analysis.
For assay [10], the system named is Citrobacter koseri. Kind of assay: Inhibition of TPL in Citrobacter koseri JCM1658 assessed as decrease in phenol production incubated for 0.5 to 3 hrs by absorbance based analysis. Conditions: dose 100-500 µM, time 0.5-3 hrs.
In assay [11] the test system is Mus musculus. Kind of assay: In vivo inhibition of TPL in C57BL/6J mouse assessed as reduction in L-Tyr-induced fecal phenol level administered orally measured after 14 days by LC-MS analysis. It counts as functional, organism-based. To be noted: route po, time 14.0 day.
Assay [12] has as its system Citrobacter koseri. Kind of assay: Inhibition of TPL in Citrobacter koseri JCM1658 assessed as decrease in phenol production at 100 to 500 uM incubated for 3 hrs by absorbance based analysis relative to control. Conditions: dose 100-500 µM.
The subject of assay [13] is Mus musculus. Kind of assay: Effect on fecal phenol level in C57BL/6J mouse administered orally measured after 7 days by LC-MS analysis. In kind it is functional, organism-based. To be noted: route po, time 7.0 day.
Assay [14] concerns Morganella morganii. Kind of assay: Inhibition of cell growth in Morganella morganii JCM1672 up to 500 uM incubated up to 24 hrs. In kind it is functional, organism-based.
Assay [15] concerns Morganella morganii. Kind of assay: Effect on TPL expression in Morganella morganii JCM1672 up to 500 uM by immunoblot analysis. In kind it is functional.

`N[C@@H](Cc1ccc(O)cn1)C(=O)O`: in assay [1], the Ki came to 130 µM.
Consider `COc1cc(C(=O)O)ccc1O`, for which the inhibition entry with Morganella morganii [2] is “inactive”.
On to `COc1ccc(C(=O)O)cc1OC`, for which the inhibition result with Morganella morganii [2] was “inactive”.
Same read-out and setting: in the case of `O=C(O)Cc1ccc(O)c(O)c1` it was “inactive”; in that of `O=C(O)c1ccc(O)cc1`, “inactive”.
Regarding `O=C(O)c1ccc(O)nc1`, the inhibition entry with Morganella morganii [2] was “inactive”.
For the molecule `O=C(O)c1ccccc1`, in the assay with Morganella morganii [2], the inhibition result was “inactive”.
On the same count and under the same terms, in the case of `O=C(O)c1cccnc1` it was “inactive”; in that of `O=C(O)c1cncc(O)c1`, “Active”.
Regarding `O=C(O[C@@H]1Cc2c(O)cc(O)cc2O[C@@H]1c1cc(O)c(O)c(O)c1)c1cc(O)c(O)c(O)c1`, the inhibition result in the assay with Morganella morganii [2] and in the assay with Citrobacter koseri [3] was “Active” throughout.
Regarding `O=C(O[C@@H]1Cc2c(O)cc(O)cc2O[C@@H]1c1ccc(O)c(O)c1)c1cc(O)c(O)c(O)c1`, the inhibition result in the assay with Morganella morganii [2] and with Citrobacter koseri [3] was “Active” throughout.
As for `Oc1cccc(O)c1`, the inhibition result with Morganella morganii [2] was “inactive”.
As for `Oc1cccc(O)c1O`, in the assay on Morganella morganii [2], the inhibition result is “inactive”.
Take `Oc1ccccc1O`: the inhibition entry with Morganella morganii [2] is “inactive”.
`O=C(O)c1cc(O)cc(O)c1` [3,5-DIHYDROXYBENZOIC ACID]: the inhibition result with Morganella morganii [4], in the assay with Morganella morganii [2], with Morganella morganii [9] and in the assay on Mus musculus [11] was “Active” in each case. The Activity result in the assay on Citrobacter koseri [5], in the assay on Mus musculus [13] and with Morganella morganii [15] was “No effect” in each case. In addition, the inhibition result in the assay with Mus musculus [6] was “Active; Tpl Expression Was Below The Detection Limit”; in the assay on Citrobacter koseri [10], “Dose-dependent-effect”. Also, the inhibition entry in the assay on Citrobacter koseri [7] and in the assay on Morganella morganii [14] was “inactive” in each case. The Imax in the assay on Morganella morganii [8] is 29.3%; in the assay with Citrobacter koseri [12], 56.2%. Further, the Ki in assay [1] is 25.7 µM.
For `O=C(O)c1cccc(O)c1` [3-HYDROXYBENZOIC ACID], the inhibition entry in the assay on Morganella morganii [2] is “Active”. The Ki in [1] stood at 35.8 µM.
Regarding `O=C(O)c1cc(O)c(O)c(O)c1` [GALLIC ACID], the inhibition entry in the assay on Morganella morganii [2] and in the assay on Citrobacter koseri [3] was “Active” throughout. In assay [1], the Ki was found to be 73.2 µM.
For `COc1ccc(C(=O)O)cc1O` [ISOVANILLIC ACID], the inhibition entry in the assay on Morganella morganii [2] is “Active”. The Ki in assay [1] is 44.7 µM.
Regarding `O=C(O)c1ccc(O)c(O)c1` [PROTOCATECHUIC ACID], the inhibition result with Morganella morganii [2] is “Active”. The Ki in assay [1] stood at 45.5 µM.
